Results published in PubChem BioAssay AID248 (DTP/NCI, 2004).
Values joined by “and” are separate entries in the source; they are usually repeats but may differ in a detail not shown here. Equal values may be shown once. Toxic doses and inconclusive results are not listed. Rule as the data show it: active = T/C of 150% or more; inactive = T/C below 125%.

Test system: L1210 leukemia ip in BDF1 mice, survival T/C
Assay: NCI In Vivo Anticancer Drug Screen. Data for tumor model L1210 Leukemia (intraperitoneal) in B6D2F1 (BDF1) mice
Conditions: endpoint: mean survival time, higher = longer survival
In short: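 Transplantable tumor model; survival measured in treated vs vehicle control mice. Value = treated/control.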

[1] = dose: 100.0 mg/kg/injection, schedule: Q01DX009 (ip), vehicle: saline with Tween-80
[2] = dose: 100.0 mg/kg/injection, schedule: Q04DX003 (ip), vehicle: saline with Tween-80
[3] = dose: 200.0 mg/kg/injection, schedule: Q01DX009 (ip), vehicle: saline with Tween-80
[4] = dose: 200.0 mg/kg/injection, schedule: Q04DX003 (ip), vehicle: saline with Tween-80
[5] = dose: 400.0 mg/kg/injection, schedule: Q01DX009 (ip), vehicle: saline with Tween-80
[6] = dose: 400.0 mg/kg/injection, schedule: Q04DX003 (ip), vehicle: saline with Tween-80
[7] = dose: 100.0 mg/kg/injection, schedule: Q01DX009 (ip), vehicle: saline
[8] = dose: 100.0 mg/kg/injection, schedule: Q04DX003 (ip), vehicle: saline
[9] = dose: 200.0 mg/kg/injection, schedule: Q01DX009 (ip), vehicle: saline
[10] = dose: 200.0 mg/kg/injection, schedule: Q04DX003 (ip), vehicle: saline
[11] = dose: 400.0 mg/kg/injection, schedule: Q01DX009 (ip), vehicle: saline
[12] = dose: 400.0 mg/kg/injection, schedule: Q04DX003 (ip), vehicle: saline
[13] = dose: 20.0 mg/kg/injection, schedule: Q04DX003 (ip), vehicle: Klucel (hydroxypropylcellulose) (HPC)
[14] = dose: 40.0 mg/kg/injection, schedule: Q04DX003 (ip), vehicle: Klucel (hydroxypropylcellulose) (HPC)
[15] = dose: 50.0 mg/kg/injection, schedule: Q04DX003 (ip), vehicle: saline with Tween-80
[16] = dose: 100.0 mg/kg/injection, schedule: Q01DX001 (ip), vehicle: saline
[17] = dose: 200.0 mg/kg/injection, schedule: Q01DX001 (ip), vehicle: saline
[18] = dose: 400.0 mg/kg/injection, schedule: Q01DX001 (ip), vehicle: saline

Measured: T/C

CC(=O)C(C)[P+](c1ccccc1)(c1ccccc1)c1ccccc1 (centres undefined)
inactive: dose: 6.25 mg/kg/injection, schedule: Q01DX009 (ip), vehicle: water 104 % of control | dose: 12.5 mg/kg/injection, schedule: Q01DX009 (ip), vehicle: water 95 % of control | dose: 12.5 mg/kg/injection, schedule: Q04DX003 (ip), vehicle: water 102 % of control | dose: 25.0 mg/kg/injection, schedule: Q01DX009 (ip), vehicle: water 102 % of control | dose: 25.0 mg/kg/injection, schedule: Q04DX003 (ip), vehicle: water 100 % of control | dose: 50.0 mg/kg/injection, schedule: Q01DX009 (ip), vehicle: water 96 % of control

CC(=O)Nc1ccn(CC(=O)c2ccco2)c(=O)n1
inactive: [1] 102 % of control | [2] 98 % of control | [3] 102 % of control | [4] 90 % of control | [5] 104 % of control | [6] 93 % of control

C/C(N)=C\C#N
inactive: dose: 50.0 mg/kg/injection, schedule: Q01DX001 (ip), vehicle: saline 91 % of control

CC(=O)OC1CCC2(C)C(=CC(=O)C3=C2CCC2(C)C3CCC2C(C)/C=C/C(C)C(C)C)C1 (centres undefined)
inactive: [7] 92 % of control | [8] 88 % of control | [9] 95 % of control | [10] 97 % of control | [11] 92 % of control | [12] 91 % of control

CC12CCC(C(=N/O)/C1=N\O)C2(C)C (centres undefined)
inactive: [13] 106 % of control | dose: 25.0 mg/kg/injection, schedule: Q01DX009 (ip), vehicle: Klucel (hydroxypropylcellulose) (HPC) 107 % of control | [14] 103 % of control | dose: 50.0 mg/kg/injection, schedule: Q01DX009 (ip), vehicle: Klucel (hydroxypropylcellulose) (HPC) 107 % of control | dose: 80.0 mg/kg/injection, schedule: Q04DX003 (ip), vehicle: Klucel (hydroxypropylcellulose) (HPC) 105 % of control | dose: 100.0 mg/kg/injection, schedule: Q04DX003 (ip), vehicle: Klucel (hydroxypropylcellulose) (HPC) 96 % of control

O=C(Nc1ccc(Cl)cc1[N+](=O)[O-])Oc1ccc(Cl)cc1Cc1ccccc1
inactive: [15] 116 % of control | dose: 100.0 mg/kg/injection, schedule: Q01DX001 (ip), vehicle: saline with Tween-80 98 % of control | [1] 100 % of control and 87 % of control | dose: 100.0 mg/kg/injection, schedule: Q04DX002 (ip), vehicle: saline with Tween-80 98 % of control and 102 % of control | [2] 98 % of control and 92 % of control | dose: 200.0 mg/kg/injection, schedule: Q01DX001 (ip), vehicle: saline with Tween-80 93 % of control | [3] 94 % of control and 95 % of control | dose: 200.0 mg/kg/injection, schedule: Q04DX002 (ip), vehicle: saline with Tween-80 94 % of control and 98 % of control | [4] 102 % of control | dose: 400.0 mg/kg/injection, schedule: Q01DX001 (ip), vehicle: saline with Tween-80 91 % of control | [5] 94 % of control and 90 % of control | dose: 400.0 mg/kg/injection, schedule: Q04DX002 (ip), vehicle: saline with Tween-80 96 % of control and 98 % of control | [6] 102 % of control and 87 % of control

C#CCOCC(O)C[As](=O)(O)c1ccc(Cl)cc1 (centres undefined)
inactive: dose: 6.25 mg/kg/injection, schedule: Q01DX001 (ip), vehicle: saline with Tween-80 101 % of control | dose: 12.5 mg/kg/injection, schedule: Q01DX001 (ip), vehicle: saline with Tween-80 106 % of control

CCC(C)C(CN)(CCCCN1CCCCC1)c1cccc2ccccc12 (centres undefined)
inactive: [2] 97 % of control | [4] 90 % of control

O=[N+]([O-])c1cc(/C=N/N2CCN(/N=C/c3ccc(Cl)c([N+](=O)[O-])c3)CC2)ccc1Cl
inactive: [16] 96 % of control | [17] 93 % of control | [18] 90 % of control

Nc1cc(Cl)ccc1N1CCCC1
inactive: [8] 94 % of control | [10] 90 % of control

C1=CC2C3C=CC(C3)C2C1 (centres undefined)
inactive: [15] 95 % of control | [2] 95 % of control | [4] 93 % of control

Nc1ncc(CNc2ccc(C(=O)NC(CCC(=O)O)C(=O)O)cc2)c(N)n1 (centres undefined)
inactive: dose: 100.0 mg/kg/injection, schedule: Q01DX001 (ip), vehicle: carboxymethylcellulose (CMC) 98 % of control | dose: 200.0 mg/kg/injection, schedule: Q01DX001 (ip), vehicle: carboxymethylcellulose (CMC) 96 % of control | dose: 400.0 mg/kg/injection, schedule: Q01DX001 (ip), vehicle: carboxymethylcellulose (CMC) 98 % of control

O=C1CCCCC1Oc1ccccc1 (centres undefined)
inactive: [1] 95 % of control | [2] 95 % of control | [3] 101 % of control | [4] 98 % of control | [5] 86 % of control | [6] 93 % of control

CC(=O)OCC(=O)C1CCC=CC1OC(C)=O (centres undefined)
inactive: [7] 105 % of control | [8] 93 % of control | [9] 105 % of control | [10] 91 % of control | [11] 98 % of control | [12] 91 % of control

CCCCCCCCCC[n+]1ccc(C(N)=O)cc1
inactive: dose: 5.0 mg/kg/injection, schedule: Q01DX009 (ip), vehicle: saline with Tween-80 97 % of control | dose: 5.0 mg/kg/injection, schedule: Q04DX003 (ip), vehicle: saline 97 % of control | dose: 10.0 mg/kg/injection, schedule: Q01DX009 (ip), vehicle: saline with Tween-80 96 % of control | dose: 10.0 mg/kg/injection, schedule: Q04DX003 (ip), vehicle: saline 94 % of control | dose: 20.0 mg/kg/injection, schedule: Q01DX009 (ip), vehicle: saline with Tween-80 96 % of control | dose: 20.0 mg/kg/injection, schedule: Q04DX003 (ip), vehicle: saline 103 % of control

Cn1cc(C(=Nc2ccccc2)Nc2ccccc2)c2ccccc21
inactive: dose: 75.0 mg/kg/injection, schedule: Q01DX001 (ip), vehicle: saline 94 % of control | dose: 150.0 mg/kg/injection, schedule: Q01DX001 (ip), vehicle: saline 94 % of control | dose: 300.0 mg/kg/injection, schedule: Q01DX001 (ip), vehicle: saline 89 % of control

CC(C)=CCC/C(C)=C/C(=O)O
inactive: [16] 100 % of control | [17] 93 % of control | [18] 93 % of control

CCN(CC)C(=O)CN
inactive: [8] 103 % of control | [10] 100 % of control | [12] 103 % of control

O=[N+]([O-])c1ccc(C=Nc2cc(Cl)ccc2Cl)s1
inactive: [2] 98 % of control | [4] 88 % of control

C/C=C/C=C/C=N/N=C(N)N
inactive: dose: 15.0 mg/kg/injection, schedule: Q01DX Z (ip), vehicle: carboxymethylcellulose (CMC) 97 % of control | dose: 30.0 mg/kg/injection, schedule: Q01DX Z (oral), vehicle: carboxymethylcellulose (CMC) 109 % of control | dose: 60.0 mg/kg/injection, schedule: Q01DX Z (oral), vehicle: carboxymethylcellulose (CMC) 103 % of control | dose: 120.0 mg/kg/injection, schedule: Q01DX Z (oral), vehicle: carboxymethylcellulose (CMC) 103 % of control and 112 % of control | dose: 240.0 mg/kg/injection, schedule: Q01DX Z (oral), vehicle: carboxymethylcellulose (CMC) 102 % of control and 107 % of control

CC1(C)N=C(N)N=C(N)N1c1cccc(OCCOc2ccccc2[N+](=O)[O-])c1
inactive: dose: 10.0 mg/kg/injection, schedule: Q01DX001 (ip), vehicle: Klucel (hydroxypropylcellulose) (HPC) 108 % of control | dose: 10.0 mg/kg/injection, schedule: Q01DX009 (ip), vehicle: Klucel (hydroxypropylcellulose) (HPC) 98 % of control and 101 % of control | dose: 10.0 mg/kg/injection, schedule: Q04DX002 (ip), vehicle: Klucel (hydroxypropylcellulose) (HPC) 94 % of control and 90 % of control | dose: 10.0 mg/kg/injection, schedule: Q04DX003 (ip), vehicle: Klucel (hydroxypropylcellulose) (HPC) 96 % of control | dose: 20.0 mg/kg/injection, schedule: Q01DX001 (ip), vehicle: Klucel (hydroxypropylcellulose) (HPC) 104 % of control | dose: 20.0 mg/kg/injection, schedule: Q01DX009 (ip), vehicle: Klucel (hydroxypropylcellulose) (HPC) 102 % of control and 108 % of control | dose: 20.0 mg/kg/injection, schedule: Q04DX002 (ip), vehicle: Klucel (hydroxypropylcellulose) (HPC) 101 % of control and 120 % of control | [13] 100 % of control | dose: 40.0 mg/kg/injection, schedule: Q01DX001 (ip), vehicle: Klucel (hydroxypropylcellulose) (HPC) 101 % of control | dose: 40.0 mg/kg/injection, schedule: Q01DX009 (ip), vehicle: Klucel (hydroxypropylcellulose) (HPC) 104 % of control and 108 % of control | dose: 40.0 mg/kg/injection, schedule: Q04DX002 (ip), vehicle: Klucel (hydroxypropylcellulose) (HPC) 94 % of control and 90 % of control | [14] 102 % of control
